Measurements from patent publication US8076487B2, “Pyridone derivative and herbicide” (Kumiai Chemical Industry Co., Ltd., priority 2006, dated 2011).

Tests used:
Assay type in all cases: in vivo
[1] = tested on: Japanese bulrush (Scirpus juncoides Roxb.); test: Test Example 1: herbicidal effect by soil application to paddy field; details: paddy field soil application; active ingredient 1,000 g per 1 hectare; wettable powder added dropwise to water surface the day after sowing; examined on the 21st day after application
In short: (§1)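 Plants were sown in flooded (3 cm) paddy soil and evaluated for herbicidal effect 21 days after soil application in a greenhouse.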

[2] = tested on: heartshape false pickerelweed (Monochoria vaginalis (Burm.f.) C.Presl); test: as above; details: paddy field soil application; active ingredient 1,000 g per 1 hectare; wettable powder added dropwise to water surface the day after sowing; examined on the 21st day after application
In short: as §1

[3] = tested on: early watergrass (Echinochloa oryzicola Vasing); test: as above; details: paddy field soil application; active ingredient 1,000 g per 1 hectare; wettable powder added dropwise to water surface the day after sowing; examined on the 21st day after application
In short: as §1

[4] = tested on: velvetleaf (Abutilon theophrasti medicus); test: Test Example 2: herbicidal effect by soil application to upland field; details: soil surface spray, upland field soil, 1,000 g active ingredient per hectare, 21st day after application
In short: (§2)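 Dose was 1,000 g active ingredient per hectare, applied as a wettable powder diluted in water and sprayed evenly over the soil of sown, covered pots at a 1,000 L/ha equivalent. Effect was judged by a standard scale 21 d later under greenhouse conditions.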

[5] = tested on: green foxtail (Setaria viridis (L.) P. Beauv.); test: as above; details: soil surface spray, upland field soil, 1,000 g active ingredient per hectare, 21st day after application
In short: as §2

[6] = tested on: barnyardgrass (Echinochloa crus-galli (L.) P. Beauv. var. crus-galli); test: as above; details: soil surface spray, upland field soil, 1,000 g active ingredient per hectare, 21st day after application
In short: as §2

[7] = tested on: slender amaranth (Amaranthus viridis L.); test: as above; details: soil surface spray, upland field soil, 1,000 g active ingredient per hectare, 21st day after application
In short: as §2

[8] = tested on: velvetleaf (Abutilon theophrasti medicus); test: Test Example 3: herbicidal effect by application to upland field (foliage treatment); details: 14th day after application; for herbicidal effect (index), Velvetleaf: foliage treatment, plants grown two weeks, 1,000 g active ingredient per hectare; for herbicidal effect, Velvetleaf: foliage treatment, 1,000 g active ingredient per 1 hectare, greenhouse
In short: (§3)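 Plants were sown in field soil and raised in a greenhouse for two weeks before foliar spraying. A water-diluted wettable powder was applied at 1,000 g active ingredient per hectare in 1,000 liters per hectare. Herbicidal effect was scored on a standard scale 14 days later.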

[9] = tested on: green foxtail (Setaria viridis (L.) P. Beauv.); test: as above; details: 14th day after application; for herbicidal effect (index), Green Foxtail: foliage treatment, plants grown two weeks, 1,000 g active ingredient per hectare; for herbicidal effect, Green Foxtail: foliage treatment, 1,000 g active ingredient per 1 hectare, greenhouse
In short: as §3

[10] = tested on: barnyardgrass (Echinochloa crus-galli (L.) P. Beauv. var. crus-galli); test: as above; details: 14th day after application; for herbicidal effect (index), Barnyardgrass: foliage treatment, plants grown two weeks, 1,000 g active ingredient per hectare; for herbicidal effect, Barnyardgrass: foliage treatment, 1,000 g active ingredient per 1 hectare, greenhouse
In short: as §3

[11] = tested on: slender amaranth (Amaranthus viridis L.); test: as above; details: 14th day after application; for herbicidal effect (index), Slender Amaranth: foliage treatment, plants grown two weeks, 1,000 g active ingredient per hectare; for herbicidal effect, Slender Amaranth: foliage treatment, 1,000 g active ingredient per 1 hectare, greenhouse
In short: as §3

Row | SMILES | herbicidal effect, Scirpus juncoides Roxb. [1] | herbicidal effect, Monochoria vaginalis (Burm. f.) C. Presl [2] | herbicidal effect, Echinochloa oryzicola Vasing [3] | herbicidal effect (index), Velvetleaf [4] | herbicidal effect (index), Green Foxtail [5] | herbicidal effect (index), Barnyardgrass [6] | herbicidal effect (index), Slender Amaranth [7] | herbicidal effect (index), Velvetleaf [8] | herbicidal effect (index), Green Foxtail [9] | herbicidal effect (index), Barnyardgrass [10] | herbicidal effect (index), Slender Amaranth [11] | herbicidal effect, Velvetleaf [8] | herbicidal effect, Green Foxtail [9] | herbicidal effect, Barnyardgrass [10] | herbicidal effect, Slender Amaranth [11]
1 | O=C1CCCC(O)=C1C(=O)c1ccc(C(F)(F)F)n(CS(=O)(=O)C2CCCC2)c1=O [I-60] | 5 (90% or more of herbicidal effect and crop phytotoxicity) | 5 (90% or more of herbicidal effect and crop phytotoxicity) | 5 (90% or more of herbicidal effect and crop phytotoxicity) | 5 (90% or more of herbicidal effect and crop phytotoxicity) | 5 (90% or more of herbicidal effect and crop phytotoxicity) | 5 (90% or more of herbicidal effect and crop phytotoxicity) | 5 (90% or more of herbicidal effect and crop phytotoxicity) | 5 (90% or more of herbicidal effect and crop phytotoxicity) | 5 (90% or more of herbicidal effect and crop phytotoxicity) | 5 (90% or more of herbicidal effect and crop phytotoxicity) | 5 (90% or more of herbicidal effect and crop phytotoxicity) | – | – | – | –
2 | Cn1ncc(C(=O)c2ccc(C(F)(F)F)n(-c3ccc(F)c(F)c3)c2=O)c1O [IV-85] | 5 (90% or more of herbicidal effect and crop phytotoxicity) | 5 (90% or more of herbicidal effect and crop phytotoxicity) | 5 (90% or more of herbicidal effect and crop phytotoxicity) | 5 (90% or more of herbicidal effect and crop phytotoxicity) | 5 (90% or more of herbicidal effect and crop phytotoxicity) | 5 (90% or more of herbicidal effect and crop phytotoxicity) | 5 (90% or more of herbicidal effect and crop phytotoxicity) | – | – | – | – | 5 (90% or more of herbicidal effect and crop phytotoxicity) | 5 (90% or more of herbicidal effect and crop phytotoxicity) | 5 (90% or more of herbicidal effect and crop phytotoxicity) | 5 (90% or more of herbicidal effect and crop phytotoxicity)
3 | Cn1ncc(C(=O)c2ccc(C(F)(F)F)n(-c3cc(F)cc(F)c3)c2=O)c1O [IV-80] | 5 (90% or more of herbicidal effect and crop phytotoxicity) | 5 (90% or more of herbicidal effect and crop phytotoxicity) | 5 (90% or more of herbicidal effect and crop phytotoxicity) | 5 (90% or more of herbicidal effect and crop phytotoxicity) | 5 (90% or more of herbicidal effect and crop phytotoxicity) | 5 (90% or more of herbicidal effect and crop phytotoxicity) | 5 (90% or more of herbicidal effect and crop phytotoxicity) | – | – | – | – | 5 (90% or more of herbicidal effect and crop phytotoxicity) | 5 (90% or more of herbicidal effect and crop phytotoxicity) | 5 (90% or more of herbicidal effect and crop phytotoxicity) | 5 (90% or more of herbicidal effect and crop phytotoxicity)
4 | CC(C)Cn1c(C(F)(F)F)ccc(C(=O)C2=C(O)CCCC2=O)c1=O [I-6] | 5 (90% or more of herbicidal effect and crop phytotoxicity) | 5 (90% or more of herbicidal effect and crop phytotoxicity) | 5 (90% or more of herbicidal effect and crop phytotoxicity) | 5 (90% or more of herbicidal effect and crop phytotoxicity) | 5 (90% or more of herbicidal effect and crop phytotoxicity) | 5 (90% or more of herbicidal effect and crop phytotoxicity) | 5 (90% or more of herbicidal effect and crop phytotoxicity) | 5 (90% or more of herbicidal effect and crop phytotoxicity) | 5 (90% or more of herbicidal effect and crop phytotoxicity) | 5 (90% or more of herbicidal effect and crop phytotoxicity) | 5 (90% or more of herbicidal effect and crop phytotoxicity) | – | – | – | –
5 | COCCn1c(C(F)(F)F)ccc(C(=O)c2cnn(C)c2O)c1=O [IV-33] | 5 (90% or more of herbicidal effect and crop phytotoxicity) | 5 (90% or more of herbicidal effect and crop phytotoxicity) | 5 (90% or more of herbicidal effect and crop phytotoxicity) | 5 (90% or more of herbicidal effect and crop phytotoxicity) | 5 (90% or more of herbicidal effect and crop phytotoxicity) | 5 (90% or more of herbicidal effect and crop phytotoxicity) | 5 (90% or more of herbicidal effect and crop phytotoxicity) | – | – | – | – | 5 (90% or more of herbicidal effect and crop phytotoxicity) | 5 (90% or more of herbicidal effect and crop phytotoxicity) | 5 (90% or more of herbicidal effect and crop phytotoxicity) | 5 (90% or more of herbicidal effect and crop phytotoxicity)
6 | O=C1CCCC(O)=C1C(=O)c1ccc(C(F)(F)F)n(-c2cccc(F)c2)c1=O [I-92] | 5 (90% or more of herbicidal effect and crop phytotoxicity) | 5 (90% or more of herbicidal effect and crop phytotoxicity) | 5 (90% or more of herbicidal effect and crop phytotoxicity) | 5 (90% or more of herbicidal effect and crop phytotoxicity) | 5 (90% or more of herbicidal effect and crop phytotoxicity) | 5 (90% or more of herbicidal effect and crop phytotoxicity) | 5 (90% or more of herbicidal effect and crop phytotoxicity) | 5 (90% or more of herbicidal effect and crop phytotoxicity) | 5 (90% or more of herbicidal effect and crop phytotoxicity) | 5 (90% or more of herbicidal effect and crop phytotoxicity) | 5 (90% or more of herbicidal effect and crop phytotoxicity) | – | – | – | –
